For the assay, the target named is T1, acetylcholinesterase (Rattus norvegicus, UniProt P37136).
T1 construct: obtained from rat's corpus striatum; from tissue; host or cells: rat corpus striatum
The experiment in a line: Inhibition of acetylcholinesterase (enzyme assay). The assay is classed as biochemical. The note with it: acetylcholinesterase from rat's corpus striatum. As for the experimental part:
The ability to inhibit acetylcholinesterase was determined by the method (enzyme assay) described in Clinica Chimica Acta, 115 (1981) 163-170. The acetylcholinesterase used in this test was obtained from rat's corpus striatum.

For two molecules, IC50 results are on record in patent publication US5622976A, “Oxadiazole derivatives having acetylcholinesterase-inhibitory and muscarinic agonist activity” (priority 1991, dated 1997).

pIC50: −log10 of the molar value.

T1 sequence (P37136 32-614): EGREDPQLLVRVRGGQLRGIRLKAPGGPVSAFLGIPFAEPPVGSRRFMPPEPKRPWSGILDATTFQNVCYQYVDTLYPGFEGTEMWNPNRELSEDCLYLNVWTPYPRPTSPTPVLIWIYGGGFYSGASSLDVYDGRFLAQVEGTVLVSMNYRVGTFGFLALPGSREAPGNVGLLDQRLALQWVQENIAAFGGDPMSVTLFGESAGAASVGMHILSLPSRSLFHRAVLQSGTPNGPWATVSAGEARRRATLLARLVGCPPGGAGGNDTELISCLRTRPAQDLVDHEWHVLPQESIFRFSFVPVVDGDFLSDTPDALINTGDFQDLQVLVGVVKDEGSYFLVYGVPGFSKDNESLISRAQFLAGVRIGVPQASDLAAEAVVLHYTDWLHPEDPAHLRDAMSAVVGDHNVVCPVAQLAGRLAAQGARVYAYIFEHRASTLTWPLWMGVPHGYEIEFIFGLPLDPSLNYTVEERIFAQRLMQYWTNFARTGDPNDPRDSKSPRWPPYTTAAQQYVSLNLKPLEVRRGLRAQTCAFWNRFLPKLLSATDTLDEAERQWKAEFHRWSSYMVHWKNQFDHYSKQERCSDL

The molecule `O=C(NCCC1CCN(Cc2ccccc2)CC1)c1noc(-c2ccc([N+](=O)[O-])cc2)n1` [(b)] showed a negative logarithm of the IC50 (pIC50) of 8.77.
For `O=C(NCCC1CCN(Cc2ccccc2)CC1)c1noc(C2CN3CCC2CC3)n1` (centres unmarked) [(a)], the pIC50 is 8.10.

As a reminder, the pIC50 is the IC50 on a negative log10 scale, so that one unit is a factor of ten. Read a high pIC50 as a small IC50.
